The values that follow come from publication PMC7368294 (Proceedings of the National Academy of Sciences of the …, 2020).

The assay deals with T1, Dα1/Dα2/Dβ1 nAChR (Drosophila melanogaster, UniProt P04755+P09478+P17644).
T1 sequence (P09478 22-567): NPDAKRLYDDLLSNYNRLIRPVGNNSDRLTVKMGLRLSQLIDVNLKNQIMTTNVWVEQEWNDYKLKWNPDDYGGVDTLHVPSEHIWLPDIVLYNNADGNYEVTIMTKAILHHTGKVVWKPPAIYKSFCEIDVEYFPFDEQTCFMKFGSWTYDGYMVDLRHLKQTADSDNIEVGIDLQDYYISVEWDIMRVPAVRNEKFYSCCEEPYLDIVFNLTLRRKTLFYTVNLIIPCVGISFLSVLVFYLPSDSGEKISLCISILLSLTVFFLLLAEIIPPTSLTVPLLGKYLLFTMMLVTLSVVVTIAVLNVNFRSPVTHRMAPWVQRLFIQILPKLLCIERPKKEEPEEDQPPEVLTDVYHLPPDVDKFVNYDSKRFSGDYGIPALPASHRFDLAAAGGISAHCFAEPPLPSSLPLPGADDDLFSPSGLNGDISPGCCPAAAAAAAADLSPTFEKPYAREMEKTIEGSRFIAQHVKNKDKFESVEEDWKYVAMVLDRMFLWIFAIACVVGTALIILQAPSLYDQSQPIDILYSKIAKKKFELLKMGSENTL
T1 sequence (P17644 22-576): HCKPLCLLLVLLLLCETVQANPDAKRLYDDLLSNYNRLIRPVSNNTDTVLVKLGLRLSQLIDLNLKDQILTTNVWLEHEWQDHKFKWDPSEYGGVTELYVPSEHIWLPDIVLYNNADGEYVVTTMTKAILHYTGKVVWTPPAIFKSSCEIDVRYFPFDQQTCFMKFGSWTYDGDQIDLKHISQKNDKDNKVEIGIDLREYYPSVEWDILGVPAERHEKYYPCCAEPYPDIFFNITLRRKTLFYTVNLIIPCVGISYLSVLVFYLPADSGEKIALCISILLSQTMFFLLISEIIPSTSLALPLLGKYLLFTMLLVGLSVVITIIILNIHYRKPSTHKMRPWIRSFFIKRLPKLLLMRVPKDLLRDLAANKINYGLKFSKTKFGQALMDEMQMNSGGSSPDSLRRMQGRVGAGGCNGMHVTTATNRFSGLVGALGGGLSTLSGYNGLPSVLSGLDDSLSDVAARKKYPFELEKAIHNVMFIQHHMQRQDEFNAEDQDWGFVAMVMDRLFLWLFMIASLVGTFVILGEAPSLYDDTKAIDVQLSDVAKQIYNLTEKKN
T1 sequence (P04755 25-521): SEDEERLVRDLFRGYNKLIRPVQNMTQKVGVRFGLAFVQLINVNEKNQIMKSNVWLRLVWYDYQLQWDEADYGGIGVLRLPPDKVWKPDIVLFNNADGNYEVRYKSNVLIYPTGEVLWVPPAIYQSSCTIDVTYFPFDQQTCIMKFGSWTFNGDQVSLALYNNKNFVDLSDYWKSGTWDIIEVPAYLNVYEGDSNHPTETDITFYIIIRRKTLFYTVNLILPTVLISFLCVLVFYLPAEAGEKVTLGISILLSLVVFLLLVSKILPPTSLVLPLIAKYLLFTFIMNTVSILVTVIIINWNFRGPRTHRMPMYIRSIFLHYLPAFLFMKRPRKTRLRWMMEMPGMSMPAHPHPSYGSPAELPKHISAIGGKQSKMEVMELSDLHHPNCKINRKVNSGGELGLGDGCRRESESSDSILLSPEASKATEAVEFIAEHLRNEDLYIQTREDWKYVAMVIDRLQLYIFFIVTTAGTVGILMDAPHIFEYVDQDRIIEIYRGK
Description: cell-based. More on the design: species or system Xenopus laevis oocytes. Particulars: Oocyte.

SMILES strings stand for the structures. Like-named read-outs stand apart in the source and are kept apart here.

For `CN/C(=N\[N+](=O)[O-])NCc1cnc(Cl)s1` [clothianidin], the Emax (read-out: Clothianidin / Imax) was 46.7 ± 2.1%.

`O=[N+]([O-])NC1=NCCN1Cc1ccc(Cl)nc1` [imidacloprid]: the Emax (read-out: Imidacloprid / Imax) came to 4.6 ± 0.4%.

On to `N#C/N=C1\SCCN1Cc1ccc(Cl)nc1` [thiacloprid], for which the Emax (read-out: Thiacloprid / Imax) was determined as 2 ± 0.2%.
